Columns and labels:
[1] = Comparative active ester reactivity study with HOA nucleophile (N-hydroxy-N-methylbenzamide); conditions: N-Hydroxy-N-methylbenzamide 1 eq., 22±2° C.
Experimental: (§1) General Experimental Protocol for Comparative Active Ester Reactivity Study with HOPO or HOA Nucleophiles
(§2) To a 4 mL scintillation vial containing Compound A-E (in respective experiments; 1 eq.) was added a stir bar followed by 150 μL of HPLC grade acetonitrile. In another 4 mL scintillation vial containing a respective nucleophile (1 eq.) was added 280 μL HPLC grade water. The solutions were combined and allowed to stir at room temperature (22±2° C.) for 4 hours. Timed aliquots at time (T)=15, 30, 60, 120 and 240 minutes were taken and analyzed by HPLC-MS using elution method 1 (Table 1).

[2] = Comparative active ester reactivity study with HOPO nucleophile; conditions: 1,2-HOPO 1 eq., 22±2° C.
Experimental: as §1, §2

[3] = Active ester reactivity study with amino acids (Z-Arg-OH); conditions: Z-Arg-OH 1 eq., 22±2° C.
Experimental: (§3) General Experimental Protocol for Nucleophilic Reactivity Study with Amino Acids
(§4) To a 4 mL scintillation vial containing Compound A or C (1 eq.) was added a stir bar followed by 70 μL of HPLC grade acetonitrile. In another 4 mL scintillation vial containing a respective amino acid (1-5 eq.) was added 130 μL HPLC grade water followed by diisopropylethylamine (5 eq.). The solutions were combined and allowed to stir at room temperature (22±2° C.) for 4 hours. Timed aliquots at time (T)=15, 30, 60, 120 and 240 minutes were taken and analyzed by HPLC-MS using elution method 1 (Table 6).

[4] = Active ester reactivity study with amino acids (Z-Ser-OH); conditions: Z-Ser-OH 1 eq., 22±2° C.
Experimental: as §3, §4

[5] = Active ester reactivity study with amino acids (N-Acetyl-L-Cysteine); conditions: N-Acetyl-L-Cysteine 5 eq., 22±2° C.
Experimental: as §3, §4

DMSO stability study = assay type: physicochemical
Experimental: To a 4 mL scintillation vial containing Compound A-E (in respective experiments; 4 mg) was added a stir bar followed by 500 μL of anhydrous dimethyl sulfoxide and was allowed to stir at room temperature (22±2° C.) for 4 hours. Timed aliquots at time (T)=15, 30, 60, 120 and 240 minutes were taken, dissolved in water to achieve 2% DMSO composition and analyzed by HPLC-MS using elution method 1 (Table 5).

[6] = Temperature stability study in H2O; assay type: physicochemical
Experimental: 20° C.: To a 4 mL scintillation vial containing Compound A-E (in respective experiments; 0.8 mg) was added 4 mL of HPLC grade water to create a 0.2 mg/mL solution. 2 mL of this solution was added to a 2 mL HPLC vial and placed in the auto sampler of an HPLC-MS at 20° C. Timed aliquots at time (T)=15, 30, 60, 120, 240 and 480 minutes were taken and analyzed by HPLC-MS using elution method 1 (Table 4).
50° C.: To a 4 mL scintillation vial containing Compound A-E (in respective experiments; 0.8 mg) was added a stir bar followed by 4 mL of HPLC grade water to create a 0.2 mg/mL solution. The vial was capped and allowed to stir in a 50° C. oil bath for 8 hours. Timed aliquots at time (T) =15, 30, 60, 120, 240 and 480 minutes were taken and analyzed by HPLC-MS using elution method 1 (Table 4).

[7] = Nucleophilic reactivity study with L-Lysine; conditions: L-Lysine 5 equiv
Experimental: General Experimental Protocol for Nucleophilic Reactivity Study with L-Lysine
To a 4 mL scintillation vial containing Compound A-E (in respective experiments; 1 eq.) was added a stir bar followed by 70 μL of HPLC grade acetonitrile. In another 4 mL scintillation vial containing L-Lysine monohydrochloride (5 eq.) was added 130 μL HPLC grade water followed by diisopropylethylamine (5 eq.). The solutions were combined and allowed to stir at room temperature (22±2° C.). Timed aliquots at time (T)=15, 30, 60 and 120 minutes were taken and analyzed by HPLC-MS using elution method 1 (Table 2).

[8] = Comparative active ester reactivity study with HOA nucleophile (benzhydroxamic acid); conditions: Benzhydroxamic Acid 1 eq., 22±2° C.
Experimental: as §1, §2

Structure (SMILES): O=C(CCc1cccnc1)Oc1c(Cl)cccc1Cl [Compound A, 2,6-Dichlorophenyl-3-(pyridin-3-yl)propanoate]
- % Active Ester Remaining ([1]; 15 min): 99.57%
- % Active Ester Remaining ([1]; 30 min): 99.24%
- % Active Ester Remaining ([1]; 60 min): 98.36%
- % Active Ester Remaining ([1]; 120 min): 96.11%
- % Active Ester Remaining ([1]; 240 min): 92.22%
- % Active Ester Remaining ([2]; 15 min): 99.32%
- % Active Ester Remaining ([2]; 30 min): 98.56%
- % Active Ester Remaining ([2]; 60 min): 96.90%
- % Active Ester Remaining ([2]; 120 min): 95.51%
- % Active Ester Remaining ([2]; 240 min): 93.74%
- % Active Ester Remaining ([3]; 15 min): 94.23%
- % Active Ester Remaining ([3]; 30 min): 90.34%
- % Active Ester Remaining ([3]; 60 min): 86.74%
- % Active Ester Remaining ([3]; 120 min): 78.45%
- % Active Ester Remaining ([3]; 240 min): 73.31%
- % Active Ester Remaining ([4]; 15 min): 97.56%
- % Active Ester Remaining ([4]; 30 min): 97.14%
- % Active Ester Remaining ([4]; 60 min): 96.30%
- % Active Ester Remaining ([4]; 120 min): 93.35%
- % Active Ester Remaining ([4]; 240 min): 91.55%
- % Active Ester Remaining ([5]; 15 min): 100%
- % Active Ester Remaining ([5]; 30 min): 99.86%
- % Active Ester Remaining ([5]; 60 min): 99.84%
- % Active Ester Remaining ([5]; 120 min): 99.70%
- % Active Ester Remaining ([5]; 240 min): 82.52%
- % Active Ester Remaining in DMSO at 22 ± 2° C. (DMSO stability study; 15 min): 100%
- % Active Ester Remaining in DMSO at 22 ± 2° C. (DMSO stability study; 30 min): 99.95%
- % Active Ester Remaining in DMSO at 22 ± 2° C. (DMSO stability study; 60 min): 99.81%
- % Active Ester Remaining in DMSO at 22 ± 2° C. (DMSO stability study; 120 min): 99.75%
- % Active Ester Remaining in DMSO at 22 ± 2° C. (DMSO stability study; 240 min): 99.60%
- % Remaining ([6]; 20° C., 15 min): 100%
- % Remaining ([6]; 20° C., 30 min): 100%
- % Remaining ([6]; 20° C., 60 min): 100%
- % Remaining ([6]; 20° C., 120 min): 100%
- % Remaining ([6]; 20° C., 240 min): 100%
- % Remaining ([6]; 20° C., 480 min): 100%
- % Remaining ([6]; 50° C., 15 min): 96.12%
- % Remaining ([6]; 50° C., 30 min): 92.86%
- % Remaining ([6]; 50° C., 60 min): 88.94%
- % Remaining ([6]; 50° C., 120 min): 84.24%
- % Remaining ([6]; 50° C., 240 min): 82.50%
- % Remaining ([6]; 50° C., 480 min): 81.87%
- % Active Ester Remaining ([7]; 15 min, 22±2° C.): 60.44%
- % Active Ester Remaining ([7]; 30 min, 22±2° C.): 26.31%
- % Active Ester Remaining ([7]; 60 min, 22±2° C.): 0.98%
- % Active Ester Remaining ([7]; 120 min, 22±2° C.): 0%
- % Active Ester Remaining ([7]; DMAP 10 mol % added, 15 min): 0.86%
- % Active Ester Remaining ([7]; DMAP 10 mol % added, 30 min): 0%
- % Active Ester Remaining ([8]; 15 min): 97.05%
- % Active Ester Remaining ([8]; 30 min): 95.97%
- % Active Ester Remaining ([8]; 60 min): 92.36%
- % Active Ester Remaining ([8]; 120 min): 86.65%
- % Active Ester Remaining ([8]; 240 min): 78.07%

Structure (SMILES): O=C(CCc1cccnc1)Oc1c(F)c(F)cc(F)c1F [Compound C, 2,3,5,6-Tetrafluorophenyl-3-(pyridin-3-yl)propanoate]
- % Active Ester Remaining ([1]; 15 min): 81.12%
- % Active Ester Remaining ([1]; 30 min): 72.43%
- % Active Ester Remaining ([1]; 60 min): 61.68%
- % Active Ester Remaining ([1]; 120 min): 50.09%
- % Active Ester Remaining ([1]; 240 min): 37.80%
- % Active Ester Remaining ([2]; 15 min): 40.02%
- % Active Ester Remaining ([2]; 30 min): 17.81%
- % Active Ester Remaining ([2]; 60 min): 9.78%
- % Active Ester Remaining ([2]; 120 min): 5.19%
- % Active Ester Remaining ([2]; 240 min): 0.94%
- % Active Ester Remaining ([3]; 15 min): 22.34%
- % Active Ester Remaining ([3]; 30 min): 3.47%
- % Active Ester Remaining ([3]; 60 min): 0.36%
- % Active Ester Remaining ([3]; 120 min): 0%
- % Active Ester Remaining ([4]; 15 min): 41.75%
- % Active Ester Remaining ([4]; 30 min): 28.90%
- % Active Ester Remaining ([4]; 60 min): 10.96%
- % Active Ester Remaining ([4]; 120 min): 2.89%
- % Active Ester Remaining ([4]; 240 min): 0.12%
- % Active Ester Remaining ([5]; 15 min): 95.12%
- % Active Ester Remaining ([5]; 30 min): 91.95%
- % Active Ester Remaining ([5]; 60 min): 85.25%
- % Active Ester Remaining ([5]; 120 min): 56.62%
- % Active Ester Remaining ([5]; 240 min): 0%
- % Active Ester Remaining in DMSO at 22 ± 2° C. (DMSO stability study; 15 min): 96.55%
- % Active Ester Remaining in DMSO at 22 ± 2° C. (DMSO stability study; 30 min): 94.71%
- % Active Ester Remaining in DMSO at 22 ± 2° C. (DMSO stability study; 60 min): 93.91%
- % Active Ester Remaining in DMSO at 22 ± 2° C. (DMSO stability study; 120 min): 92.60%
- % Active Ester Remaining in DMSO at 22 ± 2° C. (DMSO stability study; 240 min): 88.57%
- % Remaining ([6]; 20° C., 15 min): 95.77%
- % Remaining ([6]; 20° C., 30 min): 91.82%
- % Remaining ([6]; 20° C., 60 min): 87.38%
- % Remaining ([6]; 20° C., 120 min): 81.04%
- % Remaining ([6]; 20° C., 240 min): 70.85%
- % Remaining ([6]; 20° C., 480 min): 56.62%
- % Remaining ([6]; 50° C., 15 min): 79.21%
- % Remaining ([6]; 50° C., 30 min): 74.51%
- % Remaining ([6]; 50° C., 60 min): 65.73%
- % Remaining ([6]; 50° C., 120 min): 42.50%
- % Remaining ([6]; 50° C., 240 min): 6.78%
- % Remaining ([6]; 50° C., 480 min): 2.35%
- % Active Ester Remaining ([7]; 15 min, 22±2° C.): 0%
- % Active Ester Remaining ([8]; 15 min): 58.86%
- % Active Ester Remaining ([8]; 30 min): 45.60%
- % Active Ester Remaining ([8]; 60 min): 32.39%
- % Active Ester Remaining ([8]; 120 min): 18.88%
- % Active Ester Remaining ([8]; 240 min): 9.26%

— patent US20240139333A1, “2,6-DICHLOROPHENYL ESTER COMPOUNDS AND USE THEREOF” (Fusion Pharmaceuticals Inc., priority 2021, published 2024)
